From ChEMBL document CHEMBL1201862, “PubChem BioAssay data set” (2004) come the findings set out here.

Molecules are shown by their SMILES.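 1) Cells in 96-well plates. 2) Compound, 48 h, 5 concentrations. 3) Linear interpolation between surrounding doses. 4) Unreached endpoint = highest concentration. Abbreviation: GI50, concentration required for 50% inhibition of growth.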 Active and inactive are the calls of the source. Rule as the data show it: active = GI50 up to about 1.1 µM and inactive = higher.

Test systems include COLO 205; SF-268; OVCAR-3; SN12C; UACC-62; U-251; SW-620; SF-539; RXF 393; SK-OV-3; KM12; HCT-116; CCRF-CEM; Malme-3M; MOLT-4; SNB-19; HT-29; OVCAR-5; TK-10.
Test in all cases: NCI tumour cell line growth inhibition, 48 h

Take `O=c1cccccc1NCCCCCCCCNc1cccccc1=O`: the GI50 with COLO 205 is > 100 µM (inactive); in the test with SF-268 it was > 100 µM (inactive); in the test with OVCAR-3, 7.59 µM (inactive); in the test on SN12C it was > 100 µM (inactive); in the test with UACC-62, > 100 µM (inactive); in the test on U-251, > 100 µM (inactive). Further, the GI50 in the test on SW-620 is > 100 µM (inactive); in the test with SF-539 it was > 100 µM (inactive); in the test with RXF 393 it was > 100 µM (inactive); in the test with SK-OV-3, > 100 µM (inactive); in the test with KM12, > 100 µM (inactive); in the test on HCT-116, 9.62 µM (inactive). Besides, the GI50 in the test with CCRF-CEM is > 100 µM (inactive); in the test on Malme-3M, > 100 µM (inactive); in the test on MOLT-4, 36.1 µM (inactive); with SNB-19, 38.1 µM (inactive); in the test on HT-29, > 100 µM (inactive); in the test on OVCAR-5 it was > 100 µM (inactive).
On to `ClC1(c2ccccc2)c2ccc(Br)cc2-c2cc(Br)ccc21`, for which the GI50 with COLO 205 was 17.7 µM (inactive); in the test on SF-268, 18.5 µM (inactive); in the test on OVCAR-3 it was 16.9 µM (inactive); in the test on SN12C, 18.6 µM (inactive); in the test with U-251, 17.6 µM (inactive); in the test with SW-620, 19.8 µM (inactive). Further, the GI50 with SF-539 was 18.7 µM (inactive); in the test with RXF 393, 18.4 µM (inactive); in the test with SK-OV-3, 17.6 µM (inactive); with KM12 it was 19.4 µM (inactive); with TK-10 it was 19 µM (inactive); with HCT-116, 14.9 µM (inactive). Besides, the GI50 in the test with CCRF-CEM is 34.6 µM (inactive); in the test on Malme-3M, 17 µM (inactive); in the test with MOLT-4, 32.5 µM (inactive); in the test with SNB-19, 16.9 µM (inactive); in the test with HT-29 it was 12.3 µM (inactive); in the test on OVCAR-5 it was 17.3 µM (inactive).
As to `O=S(=O)(c1ccccc1)n1cnc(CCc2ccccc2)n1`, the GI50 with COLO 205, in the test on SF-268, with OVCAR-3, in the test on SN12C, in the test on UACC-62 and in the test on U-251 was > 100 µM (inactive) throughout. Also, the GI50 in the test with SW-620, with SF-539, in the test with RXF 393, in the test on SK-OV-3, in the test on KM12 and with TK-10 was > 100 µM (inactive) each time. Also, the GI50 with HCT-116, in the test on CCRF-CEM, with Malme-3M, with MOLT-4, in the test with HT-29 and with OVCAR-5 was > 100 µM (inactive) throughout.
On to `CN(C)CCC(/C=C/c1ccccc1)=N\Nc1ccc(Cl)cc1`, for which the GI50 in the test on COLO 205 is 4.31 µM (inactive); with SF-268, 2.07 µM (inactive); in the test with OVCAR-3 it was 8.69 µM (inactive); with SN12C, 2.29 µM (inactive); in the test on UACC-62 it was 2.03 µM (inactive); in the test with U-251, 1.84 µM (inactive). Further, the GI50 was 3.87 µM (inactive) in the test on SW-620; 2.25 µM (inactive) in the test on SF-539; 6.05 µM (inactive) in the test on RXF 393; 3.99 µM (inactive) with SK-OV-3; 2.84 µM (inactive) with KM12; 2.89 µM (inactive) with TK-10. In addition, the GI50 with HCT-116 is 3.51 µM (inactive); in the test with CCRF-CEM it was 2.96 µM (inactive); in the test on Malme-3M, 12.7 µM (inactive); in the test on MOLT-4 it was 2.23 µM (inactive); with SNB-19 it was 11 µM (inactive); in the test on HT-29 it was 3.86 µM (inactive). Further, the GI50 with OVCAR-5 is 1.08 µM (active).
Regarding `N=C(N)NS(=O)(=O)c1ccc(Nc2c3ccccc3nc3c(C(=O)Nc4ccc(S(N)(=O)=O)cc4)cccc23)cc1`, the GI50 is > 100 µM (inactive) in the test on COLO 205; 98.9 µM (inactive) in the test on SF-268; 36.8 µM (inactive) in the test with OVCAR-3; > 100 µM (inactive) with SN12C; 93.3 µM (inactive) in the test on UACC-62; 94.2 µM (inactive) in the test on U-251. In addition, the GI50 is > 100 µM (inactive) in the test with SW-620; 52.5 µM (inactive) in the test with SF-539; 95.3 µM (inactive) in the test with RXF 393; > 100 µM (inactive) in the test with SK-OV-3; > 100 µM (inactive) in the test on KM12; > 100 µM (inactive) in the test with TK-10. In addition, the GI50 in the test on HCT-116 was > 100 µM (inactive); with CCRF-CEM it was 71.3 µM (inactive); in the test on Malme-3M, > 100 µM (inactive); in the test with MOLT-4 it was > 100 µM (inactive); in the test with SNB-19, 37 µM (inactive); in the test on HT-29, > 100 µM (inactive). Further, the GI50 in the test on OVCAR-5 was > 100 µM (inactive).
Consider `COC1=CC(=O)c2c(cc3c(c2O)-c2c(OC)cc4cc5c(c(O)c4c2OC(=O)CC(C)(O)C3)C(=O)CC(C)(O)C5)C1=O` (stereo unspecified), for which the GI50 with COLO 205 is 1.57 µM (inactive); with SF-268, 2.97 µM (inactive); in the test with OVCAR-3, 0.577 µM (active); in the test with SN12C, 1.8 µM (inactive); in the test with UACC-62, 1.19 µM (inactive); in the test with U-251 it was 2.77 µM (inactive). Also, the GI50 was 2.37 µM (inactive) in the test with SW-620; 1.57 µM (inactive) in the test with SF-539; 2.05 µM (inactive) in the test on RXF 393; 2.76 µM (inactive) in the test with SK-OV-3; 2.41 µM (inactive) with KM12; 3.85 µM (inactive) in the test with TK-10. Besides, the GI50 is 2.45 µM (inactive) with HCT-116; 1.95 µM (inactive) with CCRF-CEM; 1.82 µM (inactive) in the test on Malme-3M; 2.27 µM (inactive) in the test on MOLT-4; 1.71 µM (inactive) in the test with SNB-19; 1.96 µM (inactive) with HT-29. For the same compound, the GI50 with OVCAR-5 is 2.14 µM (inactive).
With `CC(O)[C@@]1(c2ccccc2)CC2(CCN(C)CC2)O[C@H]1C` (stereo partly specified), the GI50 in the test with COLO 205 was > 100 µM (inactive); with SF-268, > 100 µM (inactive); with OVCAR-3, > 100 µM (inactive); in the test on UACC-62, 99.5 µM (inactive); in the test on U-251, > 100 µM (inactive); in the test with SW-620, > 100 µM (inactive). Besides, the GI50 in the test on SF-539 is > 100 µM (inactive); with RXF 393 it was > 100 µM (inactive); in the test with SK-OV-3, 41 µM (inactive); in the test on KM12 it was > 100 µM (inactive); with TK-10 it was > 100 µM (inactive); in the test with CCRF-CEM, 0.465 µM (active). Besides, the GI50 with Malme-3M, in the test with MOLT-4, in the test on SNB-19, with HT-29 and in the test with OVCAR-5 was > 100 µM (inactive) in each case.
On to `Cc1cc(=O)cc2sc3cc(Cl)ccc3nc1-2`, for which the GI50 in the test with COLO 205 is 22.3 µM (inactive); with SF-268, 6.84 µM (inactive); with OVCAR-3, 8.89 µM (inactive); in the test with SN12C, 7.45 µM (inactive); in the test on UACC-62 it was 6.84 µM (inactive); in the test on U-251, 6.53 µM (inactive). The GI50 in the test on SW-620 was 6.9 µM (inactive); with SF-539 it was 7.66 µM (inactive); in the test on RXF 393 it was 4.76 µM (inactive); with SK-OV-3, 20.7 µM (inactive); with KM12, 4.5 µM (inactive); in the test with TK-10 it was 25.4 µM (inactive). For the same compound, the GI50 is 9.42 µM (inactive) with HCT-116; 1.39 µM (inactive) with CCRF-CEM; 11.5 µM (inactive) with Malme-3M; 12.6 µM (inactive) in the test with MOLT-4; 5.93 µM (inactive) in the test on SNB-19; 20.3 µM (inactive) in the test on HT-29. Also, the GI50 with OVCAR-5 was 21.1 µM (inactive).
With `Cc1ccc(C(=O)/C=C/c2cccc([N+](=O)[O-])c2)cc1`, the GI50 in the test with COLO 205 was > 40.7 µM (inactive); with SF-268, > 67.5 µM (inactive); in the test with OVCAR-3, 54.1 µM (inactive); in the test on SN12C, > 56.4 µM (inactive); with UACC-62 it was > 100 µM (inactive); in the test on U-251, 22.2 µM (inactive). In addition, the GI50 is 21.6 µM (inactive) in the test on SW-620; > 58.6 µM (inactive) in the test on SF-539; > 43.7 µM (inactive) in the test on RXF 393; > 94.4 µM (inactive) in the test on SK-OV-3; 24.1 µM (inactive) with KM12; > 100 µM (inactive) in the test on TK-10. In addition, the GI50 is 16.6 µM (inactive) in the test with HCT-116; 29.1 µM (inactive) with CCRF-CEM; > 100 µM (inactive) with Malme-3M; 4.7 µM (inactive) in the test with MOLT-4; 60.1 µM (inactive) with SNB-19; 29.3 µM (inactive) in the test with HT-29.
On to `C#Cc1cccc(N2C(=O)c3c(c(-c4ccccc4)c(-c4ccc(Cc5ccc(-c6c(-c7ccccc7)c7c(c(-c8ccccc8)c6-c6ccccc6)C(=O)N(c6cccc(C#C)c6)C7=O)cc5)cc4)c(-c4ccccc4)c3-c3ccccc3)C2=O)c1`, for which the GI50 is 27 µM (inactive) in the test on COLO 205; 15 µM (inactive) in the test on SF-268; 44.3 µM (inactive) with OVCAR-3; 20.7 µM (inactive) in the test with SN12C; 5.6 µM (inactive) with UACC-62; 33 µM (inactive) with U-251. For the same compound, the GI50 in the test with SW-620 was 33 µM (inactive); with SF-539 it was 21.2 µM (inactive); in the test with RXF 393 it was 15.9 µM (inactive); in the test on KM12, 25.6 µM (inactive); in the test on TK-10, 17.9 µM (inactive); with HCT-116 it was 21 µM (inactive). Also, the GI50 was 26.6 µM (inactive) in the test on CCRF-CEM; 45 µM (inactive) with Malme-3M; 14.3 µM (inactive) with MOLT-4; 40 µM (inactive) in the test with SNB-19; 51.4 µM (inactive) in the test with HT-29; > 100 µM (inactive) in the test with OVCAR-5.
For the compound `C[n+]1c2ccccc2c(/C=N\NS(=O)(=O)c2ccc(O)c(C(=O)O)c2)c2ccccc21`, the GI50 in the test with SF-268 was 40.7 µM (inactive); in the test with OVCAR-3, 49.1 µM (inactive); in the test on SN12C, 67.8 µM (inactive); with UACC-62, 49.3 µM (inactive); with U-251, 94 µM (inactive); with SW-620 it was 41.1 µM (inactive). Also, the GI50 in the test on SF-539 is 63.4 µM (inactive); in the test on RXF 393 it was 32.7 µM (inactive); in the test with SK-OV-3, > 100 µM (inactive); in the test with KM12 it was 60.3 µM (inactive); in the test with TK-10, > 100 µM (inactive); with HCT-116, 32.6 µM (inactive). Also, the GI50 with CCRF-CEM was 21.8 µM (inactive); in the test with Malme-3M it was > 100 µM (inactive); in the test with MOLT-4 it was 18.5 µM (inactive); in the test on SNB-19, 67.9 µM (inactive); in the test on HT-29, 35.3 µM (inactive); in the test with OVCAR-5, > 100 µM (inactive).
